One block for each compound: values may come before it.
Legend:
[1] = Drug accumulation in tumor of nude mouse xenografted with human MCF7 cells intravenously at 231 kBq, iv administered as C14-lableled compound and assessed as radioactivity and measured at 1 hr post dose by digital autoradiographic analysis; type: ADME, organism-based, Neoplasm; details: in vivo
[2] = Drug accumulation in tumor of nude mouse xenografted with human MCF7 cells at 231 kBq, iv administered as C14-lableled compound and assessed as radioactivity and measured at 3 hrs post dose by digital autoradiographic analysis; type: ADME, organism-based, Neoplasm; details: in vivo
[3] = Ratio of drug level in tumor to muscle in nude mouse xenografted with human MCF7 cells at 231 kBq, iv administered as C14-lableled compound and assessed as radioactivity and measured at 1 hr post dose; type: ADME, organism-based; details: in vivo
[4] = Ratio of drug level in tumor to muscle in nude mouse xenografted with human MCF7 cells at 231 kBq, iv administered as C14-lableled compound and assessed as radioactivity and measured at 3 hrs post dose; type: ADME, organism-based; details: in vivo
[5] = Biodistribution in muscle of OF1 mouse at 231 kBq, iv administered as C14-lableled compound and assessed as radioactivity and measured at 1 hr post dose by digital autoradiographic analysis; type: ADME, organism-based, Muscle tissue; details: in vivo
[6] = Biodistribution in brain of OF1 mouse at 231 kBq, iv administered as C14-lableled compound and assessed as radioactivity and measured at 1 hr post dose by digital autoradiographic analysis; type: ADME, organism-based; details: in vivo
[7] = Biodistribution in heart of OF1 mouse at 231 kBq, iv administered as C14-lableled compound and assessed as radioactivity and measured at 1 hr post dose by digital autoradiographic analysis; type: ADME, organism-based; details: in vivo
[8] = Biodistribution in lungs of OF1 mouse at 231 kBq, iv administered as C14-lableled compound and assessed as radioactivity and measured at 1 hr post dose by digital autoradiographic analysis; type: ADME, organism-based, Lung; details: in vivo
[9] = Biodistribution in liver of OF1 mouse at 231 kBq, iv administered as C14-lableled compound and assessed as radioactivity and measured at 1 hr post dose by digital autoradiographic analysis; type: ADME, organism-based; details: in vivo
[10] = Biodistribution in stomach of OF1 mouse at 231 kBq, iv administered as C14-lableled compound and assessed as radioactivity and measured at 1 hr post dose by digital autoradiographic analysis; type: ADME, organism-based; details: in vivo
[11] = Biodistribution in kidney of OF1 mouse at 231 kBq, iv administered as C14-lableled compound and assessed as radioactivity and measured at 1 hr post dose by digital autoradiographic analysis; type: ADME, organism-based; details: in vivo
[12] = Biodistribution in spleen of OF1 mouse at 231 kBq, iv administered as C14-lableled compound and assessed as radioactivity and measured at 1 hr post dose by digital autoradiographic analysis; type: ADME, organism-based; details: in vivo
[13] = Biodistribution in muscle of nude mouse xenografted with human MCF7 cells at 231 kBq, iv administered as C14-lableled compound and assessed as radioactivity and measured at 3 hrs post dose by digital autoradiographic analysis; type: ADME, organism-based, Muscle tissue; details: in vivo
[14] = Biodistribution in brain of nude mouse xenografted with human MCF7 cells at 231 kBq, iv administered as C14-lableled compound and assessed as radioactivity and measured at 3 hrs post dose by digital autoradiographic analysis; type: ADME, organism-based; details: in vivo
[15] = Biodistribution in heart of nude mouse xenografted with human MCF7 cells at 231 kBq, iv administered as C14-lableled compound and assessed as radioactivity and measured at 3 hrs post dose by digital autoradiographic analysis; type: ADME, organism-based; details: in vivo
[16] = Biodistribution in lungs of nude mouse xenografted with human MCF7 cells at 231 kBq, iv administered as C14-lableled compound and assessed as radioactivity and measured at 3 hrs post dose by digital autoradiographic analysis; type: ADME, organism-based, Lung; details: in vivo
[17] = Biodistribution in stomach of nude mouse xenografted with human MCF7 cells at 231 kBq, iv administered as C14-lableled compound and assessed as radioactivity and measured at 3 hrs post dose by digital autoradiographic analysis; type: ADME, organism-based; details: in vivo
[18] = Biodistribution in kidney of nude mouse xenografted with human MCF7 cells at 231 kBq, iv administered as C14-lableled compound and assessed as radioactivity and measured at 3 hrs post dose by digital autoradiographic analysis; type: ADME, organism-based; details: in vivo
[19] = Biodistribution in spleen of nude mouse xenografted with human MCF7 cells at 231 kBq, iv administered as C14-lableled compound and assessed as radioactivity and measured at 3 hrs post dose by digital autoradiographic analysis; type: ADME, organism-based; details: in vivo
[20] = Drug excretion in OF1 mouse feces at 231 kBq, iv administered as C14-lableled compound and assessed as radioactivity and measured at 3 to 6 hrs post dose; type: ADME, organism-based; details: in vivo, time 3-6 hrs
[21] = Drug excretion in OF1 mouse urine at 231 kBq, iv administered as C14-lableled compound and assessed as radioactivity and measured at 3 to 6 hrs post dose; type: ADME, organism-based; details: in vivo, time 3-6 hrs
[22] = Biodistribution in muscle of OF1 mouse at 292 kBq, iv administered as C14-lableled compound and assessed as radioactivity and measured at 1 hr post dose by digital autoradiographic analysis; type: ADME, organism-based, Muscle tissue; details: in vivo
[23] = Biodistribution in brain of OF1 mouse at 292 kBq, iv administered as C14-lableled compound and assessed as radioactivity and measured at 1 hr post dose by digital autoradiographic analysis; type: ADME, organism-based; details: in vivo
[24] = Biodistribution in heart of OF1 mouse at 292 kBq, iv administered as C14-lableled compound and assessed as radioactivity and measured at 1 hr post dose by digital autoradiographic analysis; type: ADME, organism-based; details: in vivo
[25] = Biodistribution in lungs of OF1 mouse at 292 kBq, iv administered as C14-lableled compound and assessed as radioactivity and measured at 1 hr post dose by digital autoradiographic analysis; type: ADME, organism-based, Lung; details: in vivo
[26] = Biodistribution in liver of OF1 mouse at 292 kBq, iv administered as C14-lableled compound and assessed as radioactivity and measured at 1 hr post dose by digital autoradiographic analysis; type: ADME, organism-based; details: in vivo
[27] = Biodistribution in stomach of OF1 mouse at 292 kBq, iv administered as C14-lableled compound and assessed as radioactivity and measured at 1 hr post dose by digital autoradiographic analysis; type: ADME, organism-based; details: in vivo
[28] = Biodistribution in kidney of OF1 mouse at 292 kBq, iv administered as C14-lableled compound and assessed as radioactivity and measured at 1 hr post dose by digital autoradiographic analysis; type: ADME, organism-based; details: in vivo
[29] = Biodistribution in spleen of OF1 mouse at 292 kBq, iv administered as C14-lableled compound and assessed as radioactivity and measured at 1 hr post dose by digital autoradiographic analysis; type: ADME, organism-based; details: in vivo
[30] = Biodistribution in muscle of nude mouse xenografted with human MCF7 cells at 292 kBq, iv administered as C14-lableled compound and assessed as radioactivity and measured at 6 hrs post dose by digital autoradiographic analysis; type: ADME, organism-based, Muscle tissue; details: in vivo
[31] = Biodistribution in brain of nude mouse xenografted with human MCF7 cells at 292 kBq, iv administered as C14-lableled compound and assessed as radioactivity and measured at 6 hrs post dose by digital autoradiographic analysis; type: ADME, organism-based; details: in vivo
[32] = Biodistribution in heart of nude mouse xenografted with human MCF7 cells at 292 kBq, iv administered as C14-lableled compound and assessed as radioactivity and measured at 6 hrs post dose by digital autoradiographic analysis; type: ADME, organism-based; details: in vivo
[33] = Biodistribution in lung of nude mouse xenografted with human MCF7 cells at 292 kBq, iv administered as C14-lableled compound and assessed as radioactivity and measured at 6 hrs post dose by digital autoradiographic analysis; type: ADME, organism-based; details: in vivo
[34] = Biodistribution in stomach of nude mouse xenografted with human MCF7 cells at 292 kBq, iv administered as C14-lableled compound and assessed as radioactivity and measured at 6 hrs post dose by digital autoradiographic analysis; type: ADME, organism-based; details: in vivo
[35] = Biodistribution in kidney of nude mouse xenografted with human MCF7 cells at 292 kBq, iv administered as C14-lableled compound and assessed as radioactivity and measured at 6 hrs post dose by digital autoradiographic analysis; type: ADME, organism-based; details: in vivo
[36] = Biodistribution in spleen of nude mouse xenografted with human MCF7 cells at 292 kBq, iv administered as C14-lableled compound and assessed as radioactivity and measured at 6 hrs post dose by digital autoradiographic analysis; type: ADME, organism-based; details: in vivo
[37] = Drug excretion in OF1 mouse feces at 292 kBq, iv administered as C14-lableled compound and assessed as radioactivity and measured at 3 to 6 hrs post dose; type: ADME, organism-based; details: in vivo, time 3-6 hrs
[38] = Drug excretion in OF1 mouse urine at 292 kBq, iv administered as C14-lableled compound and assessed as radioactivity and measured at 3 to 6 hrs post dose; type: ADME, organism-based; details: in vivo, time 3-6 hrs

Drug uptake [1]: 1.6%
Drug uptake [2]: 0.8%
Ratio [3]: 1.1
Ratio [4]: 2.5
Drug uptake [5]: Active
Drug uptake [6]: Active
Drug uptake [7]: Active
Drug uptake [8]: Active
Drug uptake [9]: Active
Drug uptake [10]: Active
Drug uptake [11]: Active
Drug uptake [12]: Active
Drug uptake [13]: Not Active
Drug uptake [14]: Not Active
Drug uptake [15]: Not Active
Drug uptake [16]: Not Active
Drug uptake [17]: Not Active
Drug uptake [18]: Not Active
Drug uptake [19]: Not Active
Drug excretion [20]: Active
Drug excretion [21]: Active
SMILES: CCCCN1CCN(c2ccc(S(=O)(=O)Oc3cc(OC)c(OC)c(OC)c3)cc2)[14C]1=O

Drug uptake [22]: Active
Drug uptake [23]: Active
Drug uptake [24]: Active
Drug uptake [25]: Active
Drug uptake [26]: Active
Drug uptake [27]: Active
Drug uptake [28]: Active
Drug uptake [29]: Active
Drug uptake [30]: Not Active
Drug uptake [31]: Not Active
Drug uptake [32]: Not Active
Drug uptake [33]: Not Active
Drug uptake [34]: Not Active
Drug uptake [35]: Not Active
Drug uptake [36]: Not Active
Drug excretion [37]: Active
Drug excretion [38]: Active
SMILES: COc1cc(OS(=O)(=O)c2ccc(N3CCN[14C]3=O)cc2)cc(OC)c1OC
